Tests used:
[1] = target: TGK (Thermococcus gorgonarius, UniProt P56689, A485L/D141A/E143A/E664K/V93Q/Y409G); details: ATP incorporation from an RNA primer; cited from earlier work
[2] = target: T1, 2M (Thermococcus gorgonarius, UniProt P56689, A485L/D141A/E143A/E664K/F545L/I521L/K592A/T541G/V93Q/Y409G); experiment: Steady-state kinetics of single nucleotide incorporation by 2M; assay type: biochemical; details: single nucleotide incorporation from 2′OMe-RNA primer
T1 construct: made in house; host or cells: E. coli BL21 CodonPlus-RIL
Procedure: Steady-state kinetic parameters for NTP incorporation by 2M were determined by performing initial velocity measurements of single incorporations of either ATP, 2′OMe-ATP, or MOE-ATP. To generate the 2′OMe-RNA/DNA substrate, a 20-mer 2′OMe-RNA primer FD was 5′ 6-carboxyfluorescein end-labeled and annealed to the 52-mer DNA template BFL770 (Supplementary Table 1) at a 1:1.2 molar ratio. The reactions were performed at 50° C. in a mixture containing 1× Thermopol buffer, 6 mM Mg^2+, 100 nM 2′OMe-RNA/DNA substrate, and at NTP concentrations ranging from 0.5-250 μM. Enzyme concentrations and reaction times were selected to maintain initial velocity conditions. The 25 μL reactions were stopped by addition of a quenching solution containing 100 mM EDTA, 80% deionized formamide, 0.25 mg/ml bromophenol blue and 0.25 mg/ml xylene cyanol. Moreover, less than 20% of the primers were extended as required for steady-state conditions.
Product and substrate were separated on a 22% denaturing (8 M urea) polyacrylamide gel. The resulting bands were quantified using a Cytiva Typhoon RGB imager in fluorescence mode. Steady-state kinetic parameters (KM, kcat) were determined by fitting the data to the Michaelis-Menten equation. The data are the means and standard error from three independent experiments.

[3] = system: ‘wild type’ (wt) KRAS RNA; experiment: 2′OMezyme RNA cleavage in trans, wild type KRAS substrate; assay type: biochemical, human; details: differs from G12D substrate by one nucleotide (G35)
Procedure: (§1) RNA cleavage assays were performed in trans using PAGE-purified 2′OMezymes and RNA substrates, annealed as described above and incubated at 37° C. in 2′OMezyme selection buffer (30 mM EPPS pH 7.4, 150 mM KCl, 1 mM MgCl2), or 30 mM EPP pH 8.5, 150 mM KCl, 25 mM MgCl2, supplemented with RNasin ribonuclease inhibitor (Promega, USA). In Mg^2+ titration experiments, 2′OMezyme selection buffer was supplemented with additional magnesium chloride (MgCl2); in pH titration experiments, 150 mM KCl, 1 mM MgCl2 plus 50 mM buffer as follows was used: […] (pH 5.0-6.0), EPPS (pH 6.5-8.75), CHES (pH 9.0-12.0). For magnesium free reactions, 30 mM EPPS pH 7.4, 150 mM KCl, 5 mM EDTA was used.

[4] = system: 2.1 kb KRAS transcript (Sub_KRas_ORF); experiment: 2′OMezyme cleavage of long KRAS transcripts; assay type: biochemical, human; details: 37° C., pH 7.4, 1 mM Mg^2+, 65 h
Procedure: Human cDNA clones for KRAS (transcript variant b, accession no. NM_004985) and CTNNB1 (transcript variant 1, accession no. NM_001904) in plasmids pCMV6-XL6 (SP6 promoter) (cat. no. SC109374) and pCMV6-XL5 (T7 promoter) (cat. no. SC107921), respectively, were obtained from OriGene, USA. Site-directed mutagenesis was performed using a QuikChange II kit (Agilent Technologies, USA), according to the manufacturer's protocol; KRAS mutations G12D (c.35G>A) and G13D ([…]), and CTNNB1 mutation S33Y (c.98C>A) were introduced using primer sets shown in Supplementary Table 2 (“Quik_KRAS_G12D_Fw/Rev”, “Quik_KRAS_G13D_Fw/Rev” or “Quik_CTNNB_G12D_Fw/Rev”) and resulting plasmids cloned and verified by Sanger sequencing (Source Biosciences, UK). Long RNA substrates equivalent to full KRAS and CTNNB1 mRNA transcripts bearing 5′ fluorescein (“Sub_KRas_ORF” and “Sub_CTNNB1_ORF”, respectively) were prepared using HiScribe T7 and SP6 RNA synthesis kits (NEB, USA), according to the manufacturer's protocol, with a 4:1 ratio of 5′-Fluorescein-ApG dinucleotide (IBA Life Sciences, Germany) to GTP, using template plasmids linearised using XmaI (NEB, USA). Reactions were subsequently treated with TURBO DNase (Invitrogen/Thermo Fisher Scientific, USA) and RNA transcripts purified using RNeasy mini kits (Qiagen, Germany). […]

[5] = 2′OMezyme serum stability; assay type: in vitro ADME; details: 37° C., 120 h
Procedure: PAGE-purified 2′OMezyme “R15/5-K” and DNAzyme “1023_KRasC” were annealed in water as described above, then incubated (at 5 μM) at 37° C. in 95% human serum (MilliporeSigma, Germany). Full-length catalyst remaining was quantified on Urea-PAGE gels stained with SYBR Gold (ThermoFisher Scientific, USA).

[6] = system: Sub_KRas_12 [G12D] RNA; experiment: 2′OMezyme RNA cleavage in trans, KRAS G12D substrate; assay type: biochemical, human
Procedure: as §1
Pseudo first-order reaction rates (kobs) under single-turnover pre-steady-state (Km/kcat) conditions were determined from three independent reactions with (separately annealed) catalyst at 5 μM and substrate at 1 μM, as described previously^8, fit using Prism 9 (GraphPad Software, USA). For multiple turnover reactions, 1 μM substrate was reacted with 10 nM 2′OMezyme at 37° C. in 2′OMezyme selection buffer.

[7] = system: 901 bp DNA template (sfGFP under T7 promoter); experiment: 2′OMe-RNA transcription reactions with RGVG-M6; assay type: biochemical; details: compared to 2M; dependent on high concentrations of Mn2+
Procedure: DNA template for transcription reactions was created by PCR-amplifying a 901-bp region on a plasmid encoding sfGFP under a T7 promoter. The PCR used 0.5 μM forward primer “5T7.for” and 0.5 μM reverse primer “pCUN_Do.rev”; cycling conditions were 95° C. for 30 s, 30×[95° C. for 10 s, 69° C. for 30 s, 72° C. for 30 s], 72° C. for 2 min.
For very permissive conditions, reactions comprised 125 nM DNA template, 200 nM T7 RNAP WT or its variant RGVG-M613, 1.5 mM MnCl2, 7.5 mM each NTP or 1 mM each 2′OMe-NTP, 0.1 U yeast inorganic pyrophosphatase. In order to compare the yield of 2′OMe-RNA synthesis by 2M and RGVG-M6, reactions were run under equimolar nucleic acid input of 0.5 pmol primer (2M) and 0.5 pmol DNA template (50 nM, RGVG-M6), and 50 nM RGVG-M6 polymerase with a polymerase:template ratio of 1:1 as described in 13. Reactions were treated with Turbo DNase and Proteinase K followed by denaturing PAGE.

**Q.** What does the source list for `Nc1ncnc2c1ncn2[C@@H]1O[C@H](COP(=O)(O)OP(=O)(O)OP(=O)(O)O)[C@@H](O)[C@H]1O` [ATP]?
**A.** Km [1]: 13.3 µM; Vmax/kcat values for incorporation [2]: essentially identical

**Q.** With “R15/5-K: RNA endonuclease 2′OMezyme (all 2′OMe-RNA) specific for KRAS RNA c.26 - 44, G12D allele (CCUACGCACGUGACCCAUGACGGACAGAGAAGGCAUGACAGACUGCUCCAA; all 2'-O-methyl, backbone not given here)” as the molecule, how does the “cleavage of wt KRAS RNA” value [3] read?
**A.** essentially no cleavage

**Q.** What about the “cleavage of wt KRAS transcript or G13D (c.38G>A) transcript” value [4] of the same molecule?
**A.** virtually no cleavage

**Q.** What about the “cleavage of long structured KRAS transcript bearing G12D” value ([4]; G12D (c.35G>A)) of the same molecule?
**A.** able to invade and cleave

**Q.** And the “degradation (or loss in activity) after incubation in human serum” value [5]?
**A.** no significant degradation

**Q.** And the multiple-turnover catalysis ([6]; 10 nM 2′OMezyme, 1 μM substrate)?
**A.** capable of multiple-turnover catalysis

**Q.** What about the kcat ([6]; 1 mM Mg^2+, pH 7.4, 37° C., single turnover) of the same molecule?
**A.** 3.06e-05 s⁻¹

**Q.** What about the “reduction of single-turnover rate compared with optimal conditions” value ([6]; 1 mM Mg^2+, pH 7.4 vs 25 mM Mg^2+, pH 8.5) of the same molecule?
**A.** approximately 50%

**Q.** What about the kcat ([6]; 5 mM EDTA, pH 7.4, 37° C. (absence of Mg^2+)) of the same molecule?
**A.** 2.8e-07 s⁻¹

**Q.** What about the kcat ([6]; 25 mM Mg^2+, pH 8.5, 37° C., single turnover, 5 μM 2′OMezyme, 1 μM substrate) of the same molecule?
**A.** 6.67e-05 s⁻¹

**Q.** What about the activity retained ([6]; quasi-physiological low-Mg^2+ regime (0.5-1 mM Mg^2+)) of the same molecule?
**A.** 70-80%

B1: RGVG-M6: T7 RNA polymerase variant (P266L, S430P, N433T, E593G, S633P, Y639V, V685A, H784G, F849I, F880Y) (protein, UniProt P00573 1-883, looked up, variant P266L S430P N433T E593G S633P Y639V V685A H784G F849I F880Y)
T7 RNA polymerase: MNTINIAKNDFSDIELAAIPFNTLADHYGERLAREQLALEHESYEMGEARFRKMFERQLKAGEVADNAAAKPLITTLLPKMIARINDWFEEVKAKRGKRPTAFQFLQEIKPEAVAYITIKTTLACLTSADNTTVQAVASAIGRAIEDEARFGRIRDLEAKHFKKNVEEQLNKRVGHVYKKAFMQVVEADMLSKGLLGGEAWSSWHKEDSIHVGVRCIEMLIESTGMVSLHRQNAGVVGQDSETIELAPEYAEAIATRAGALAGISLMFQPCVVPPKPWTGITGGGYWANGRRPLALVRTHSKKALMRYEDVYMPEVYKAINIAQNTAWKINKKVLAVANVITKWKHCPVEDIPAIEREELPMKPEDIDMNPEALTAWKRAAAAVYRKDKARKSRRISLEFMLEQANKFANHKAIWFPYNMDWRGRVYAVPMFTPQGNDMTKGLLTLAKGKPIGKEGYYWLKIHGANCAGVDKVPFPERIKFIEENHENIMACAKSPLENTWWAEQDSPFCFLAFCFEYAGVQHHGLSYNCSLPLAFDGSCSGIQHFSAMLRDEVGGRAVNLLPSETVQDIYGIVAKKVNEILQADAINGTDNGVVTVTDENTGEISEKVKLGTKALAGQWLAYGVTRSVTKRPVMTLAVGSKEFGFRQQVLEDTIQPAIDSGKGLMFTQPNQAAGYMAKLIWESASVTVVAAVEAMNWLKSAAKLLAAEVKDKKTGEILRKRCAVHWVTPDGFPVWQEYKKPIQTRLNLMFLGQFRLQPTINTNKDSEIDAHKQESGIAPNFVGSQDGSHLRKTVVWAHEKYGIESFALIHDSFGTIPADAANLFKAVRETMVDTYESCDVLADFYDQIADQLHESQLDKMPALPAKGNLNLRDILESDYAFA
**Q.** For B1, which “2′OMe-RNA synthesis activity (in words)” value [7] is on record?
**A.** modest

From patent US20250197820A1, “NUCLEIC ACID POLYMERASE AND ITS USE IN PRODUCING NON-DNA NUCLEOTIDE POLYMERS” (UNITED KINGDOM RESEARCH AND INNOVATION, priority 2021, published 2025)
